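Each compound was tested at five concentrations against cells in 96-well plates for 48 hours. At the GI50, growth is halved. TGI is the concentration that stops growth completely.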
What was measured:
Assay in all cases: NCI tumour cell line growth inhibition, 48 h
[1] = test system: HCC-2998 colon
[2] = test system: HL-60(TB) leukemia
[3] = test system: NCI-H226 lung
[4] = test system: TK-10 renal
[5] = test system: UACC-257 melanoma
[6] = test system: UO-31 renal
[7] = test system: A498 renal
[8] = test system: SK-MEL-28 melanoma
[9] = test system: DU-145 prostate
[10] = test system: T-47D breast

`C/C=C/COC(=O)CO[N+](=O)[O-]` was tested, and the TGI [1] was > 100 µM, the TGI [2] was > 100 µM and the TGI [3] was > 100 µM. For the same molecule, the TGI [4] was > 100 µM, the TGI [5] was > 100 µM and the TGI [6] was > 100 µM.

In the case of `CCCCCCCCCCCCCC(=O)CSCCNC(=O)CCNC(=O)[C@@H](O)C(C)(C)COP(=O)(O)OP(=O)(O)OCC1OC(n2cnc3c(N)ncnc32)C(O)C1OP(=O)(O)O` (stereo not given in full), the TGI [7] is reported as 35.5 µM, the TGI [1] is reported as 35.7 µM and the TGI [2] is reported as 51.4 µM. The TGI [3] was 35.7 µM, the TGI [8] was 34.3 µM and the TGI [4] was > 100 µM. For the same molecule, the TGI [5] was 36.1 µM and the TGI [6] was 27.6 µM.

`CN(/N=C/c1cccc2cccnc12)c1c([N+](=O)[O-])cc([N+](=O)[O-])cc1[N+](=O)[O-]` was tested, and the TGI [7] was > 100 µM, the TGI [1] was > 100 µM and the TGI [2] was > 100 µM. The TGI [3] was > 100 µM, the TGI [8] was > 100 µM and the TGI [4] was > 100 µM. The TGI [5] was > 100 µM.

For `CCCN(CCC)c1c([N+](=O)[O-])cc(C(=O)N(CCO)CCO)cc1[N+](=O)[O-]`, the TGI [1] was > 100 µM, the TGI [2] was > 100 µM and the TGI [3] was > 100 µM. For the same molecule, the TGI [8] was > 100 µM, the TGI [4] was > 100 µM and the TGI [5] was > 100 µM. For the same molecule, the TGI [6] was > 100 µM.

For `Cn1c(=O)c2[nH]cnc2n(CC(N)=O)c1=O`, the TGI [7] was > 100 µM, the TGI [8] was > 100 µM and the TGI [4] was > 100 µM. For the same molecule, the TGI [6] was > 100 µM.

`CCOC(=O)/C=C/C(=O)[C@H](CC(C)C)NC(=O)[C@H](Cc1ccccc1)NC(=O)OCc1ccccc1` gave a GI50 [9] of 3.1 µM, a TGI [9] of 11.5 µM and a GI50 [1] of 15.6 µM. For the same molecule, the TGI [1] was 30.1 µM, the GI50 [2] was 2.26 µM and the TGI [2] was 9.67 µM. It also gave a GI50 [3] of 26.4 µM, a TGI [3] of 60.4 µM and a GI50 [8] of 3.12 µM. The TGI [8] was 12 µM, the GI50 [10] was 2.1 µM and the TGI [10] was 4.66 µM. The GI50 [4] was 1.87 µM, the TGI [4] was 3.81 µM and the GI50 [5] was 15 µM. For the same molecule, the TGI [5] was 29.2 µM, the GI50 [6] was 1.78 µM and the TGI [6] was 3.66 µM.

`CN(C)CCNC(=O)c1cccc2ccc(-c3ccc(-c4ccccc4)cc3)nc12` showed a TGI [7] of 11 µM, a TGI [1] of 3.3 µM and a TGI [2] of 4.23 µM. It also gave a TGI [3] of 30.1 µM, a TGI [8] of 3.29 µM and a TGI [4] of 9.43 µM. The TGI [5] was 3.58 µM and the TGI [6] was 24.7 µM.

`N#Cc1ccc2cc3c(cc2c1)OCO3` was tested, and the TGI [7] was > 100 µM, the TGI [1] was > 100 µM and the TGI [2] was > 100 µM. For the same molecule, the TGI [3] was > 100 µM, the TGI [8] was > 100 µM and the TGI [6] was 89.3 µM.

For `O=C(CCc1nnc2s/c(=C\c3ccccc3Cl)c(=O)n12)Nc1cc(Cl)ccc1Cl`, the TGI [1] was > 100 µM, the TGI [2] was > 100 µM and the TGI [3] was > 100 µM. For the same molecule, the TGI [8] was > 100 µM, the TGI [4] was > 100 µM and the TGI [5] was > 100 µM. The TGI [6] was > 100 µM.

`CC(=O)N(O)Cc1ccccc1` was tested, and the TGI [1] was > 100 µM, the TGI [2] was > 100 µM and the TGI [3] was > 100 µM. For the same molecule, the TGI [8] was > 100 µM, the TGI [4] was > 100 µM and the TGI [5] was > 100 µM. The TGI [6] was > 100 µM.

`C#CC1(O)CCC2[C@@H]3CCc4cc(Oc5nc(F)nc(-c6c7ccccc7cn6C)n5)ccc4C3CC[C@@]21C` (stereo not given in full) was tested, and the TGI [7] was > 100 µM, the TGI [1] was > 100 µM and the TGI [2] was > 100 µM. For the same molecule, the TGI [3] was > 100 µM, the TGI [8] was > 100 µM and the TGI [4] was > 100 µM. For the same molecule, the TGI [5] was > 100 µM and the TGI [6] was > 100 µM.

With `S=C=NCCc1ccccc1` the TGI [7] was 2 µM, the TGI [1] was 1.54 µM and the TGI [2] was 2.65 µM. The TGI [3] was 2.88 µM, the TGI [8] was 2.27 µM and the TGI [4] was 3.34 µM. It also gave a TGI [5] of 2.75 µM and a TGI [6] of 3.94 µM.

`Cc1ccc(C)c(NC(=O)CC2SC(=Nc3ccccc3Cl)NC2=O)c1` (stereo not given) was tested, and the TGI [7] was > 100 µM, the TGI [1] was > 100 µM and the TGI [2] was > 100 µM. The TGI [3] was > 100 µM, the TGI [8] was > 100 µM and the TGI [4] was > 100 µM. The TGI [5] was > 100 µM and the TGI [6] was > 100 µM.

`Cc1nc2sccn2c1C(=O)NC(=O)Nc1ccc(Cl)cc1` was tested, and the TGI [7] was > 100 µM, the TGI [1] was > 100 µM and the TGI [2] was > 100 µM. The TGI [3] was > 100 µM, the TGI [8] was > 100 µM and the TGI [4] was > 100 µM. The TGI [5] was > 100 µM and the TGI [6] was > 100 µM.

In the case of `O=c1[nH]c(=O)n(C2CC(O)C(CO)O2)cc1C#Cc1ccc(F)cc1` (stereo not given), the TGI [1] is reported as > 100 µM, the TGI [3] is reported as > 100 µM and the TGI [8] is reported as > 100 µM. The TGI [5] was > 100 µM and the TGI [6] was > 100 µM.

For `CCn1c2c(c3ccccc31)C(c1ccccc1)CC1C(=O)N(c3ccccc3)C(=O)C21` (stereo not given), the TGI [7] was 30.6 µM, the TGI [1] was > 100 µM and the TGI [2] was > 100 µM. For the same molecule, the TGI [3] was > 100 µM, the TGI [8] was > 100 µM and the TGI [4] was > 100 µM. The TGI [5] was > 100 µM and the TGI [6] was > 100 µM.

In the case of `Cc1ccc(NC(=O)/C(=N/N(C)C)C(C2OC(=O)c3ccccc32)[N+](=O)[O-])cc1` (stereo not given), the TGI [7] is reported as > 100 µM, the TGI [1] is reported as > 100 µM and the TGI [2] is reported as > 100 µM. The TGI [3] was > 100 µM, the TGI [8] was > 100 µM and the TGI [10] was > 100 µM. For the same molecule, the TGI [4] was > 100 µM, the TGI [5] was > 100 µM and the TGI [6] was > 100 µM.

For `Cc1cc(=O)[nH]c(CNC(=O)c2cccc(C(=O)NCc3cc(=O)[nH]c(C)n3)c2)n1`, the TGI [7] was > 100 µM, the TGI [1] was > 100 µM and the TGI [2] was > 100 µM. For the same molecule, the TGI [3] was > 100 µM, the TGI [8] was > 100 µM and the TGI [4] was > 100 µM. The TGI [5] was > 100 µM and the TGI [6] was > 100 µM.

From PubChem BioAssay (NCI)
